{"source": "patent US8022178B2", "about": "“Modified self-assembling peptides” (Massachusetts Institute of Technology, priority 2006, dated 2011)", "key": {"[1]": {"test_system": "HUVEC (human umbilical vein endothelial cells)", "experiment": "HUVEC culture on bFGF loaded peptide matrix", "assay_type": "cell-based", "conditions": "Day 3; bFGF loaded matrix compared to negative and positive control; FIG. 21; listed as RAD-2P", "protocol": "The effect of protein retention and delivery using the self-assembling peptide were studied (Table 11). bFGF was used as a model protein. The retention of bFGF in different peptide matrix in different charge condition was measured by ELISA after washing by PBS. After washing out unbound bFGF, the effect of protein retention to self-assembling peptide matrix were evaluated the using cell culturing of HUVEC (human umbilical vein endothelial cells).\nThe peptide solutions provided in Table 12 were loaded in the culture inserts (10 mm diameter, Millicell-CM, Millipore) and gels were formed using PBS. After gelation, bFGF solution in PBS was added inside and outside and plated for overnight. bFGF was loaded at 175 ng/insert. After loading bFGF, the PBS inside and outside the inserts were exchanged three times (2 hours, 9 hours and 12 hours) to remove unbound bFGF (Washing). […]\nCell culturing using cell culture medium (EGM-2-MV) was used without attached growth factor on peptide matrix as negative control. […] The bFGF concentration in washing buffer (PBS) and cell culture medium (EGM-2-MV) was measured using ELISA. […] Growth factor retention rate was calculated by accumulating the amount of measured bFGF. […]"}, "[2]": {"test_system": "bone defects of 4 mm diameter in rat skull", "experiment": "Rat skull bone defect filled with hydrogel, bone formation evaluation", "assay_type": "in vivo", "conditions": "grade 1 more than 80%, 2 more than 50%, 3 weak in X-ray", "protocol": "The effects of the functionalized peptide were evaluated in vivo in rats. 6 weeks male rat sculls were used for this evaluation (two samples for each experiment).\nThe rats in this study underwent creation of two bone defects of 4 mm diameter, bilaterally in each skull. Some of the defects were left empty as controls.\nThe peptide solution was directly injected to the defects without cells. The peptide solution formed a hydrogel immediately after injection by the salt in the body fluid (e.g., blood, lymph fluid, and the like).\nBone Formation Evaluation: All animals from each group were euthanized 2 and 4 weeks later. The X-ray image of the skulls were taken. The skulls were collected, hemisected, and fixed in formalin. The defects were then trimmed, decalcified, embedded in paraffin, stained by HE staining method, and evaluated by a Veterinary pathologist, who characterized by histomorphometry the type of tissue contained within the defects. The degree of bone regeneration is graded as Complete recovery, 1 (more than 80%), 2 (more than 50%), or 3 (weak in X-ray)."}, "[3]": {"test_system": "Mouse preosteoblast cell line (MC3T3-E1)", "experiment": "Osteocalcin secreted in culture medium (EIA)", "assay_type": "cell-based", "conditions": "FIG. 17 compared to FIG. 6; versus PRGmx or PRFmx", "protocol": "Mouse preosteoblast cell line (MC3T3-E1) was used to compare the proliferation and differentiation effects of the motifs with RAD16-1 and Collagen-I hydrogels as controls. The proliferation was measured by DNA contents and the differentiation effects were evaluated using Alkaline phosphatase (ALP) activity and secreted Osteocalcin. Alkaline phosphatase is known to be differentiation marker of osteoblast in earlier stage. Secreted Osteocalcin is known to be differentiation marker of osteoblast in later stage and its activity is correlated with the bone mineralization.\n1% RAD16-I solution [self-assembling peptide solution] was obtained as RAD16-I (Puramatrix™, 3DM Inc./BD Bioscience). The functionalized peptides of Table 2 were dissolved in water at final concentration of 1% (v/w). The functionalized peptide solutions were then mixed with 1% RAD16-I solution at a ratio of 1:1 (Table 4). Each peptide solution was loaded in the Culture plate inserts (10 mm diameter, Millicell-CM, Millipore). […]\nCell proliferation was evaluated using DNA contents in the hydrogel using PicoGreen dsDNA Kits (Molecular Probes). ALP activity was quantitatively measured from cell lysis using Alkaline Phosphatase Fluorescence Assay Kit (Sigma). Osteocalcin was measured from cell culture medium using Mouse Osteocalcin EIA Kit (Biomedical Technologies Inc.)."}}, "note": "“Also recorded” adds a separate entry of the source."}
{"substance": "Ac(RADA)4-CONH2", "values": [{"measurement": "cell attachment and cell spread", "setting": "[1]", "value": "superior; also recorded: dominant effect"}, {"measurement": "Average score (degree of bone regeneration)", "setting": "[2]; four weeks", "value": 1.0}, {"measurement": "Average score (degree of bone regeneration)", "setting": "[2]; two weeks", "value": 3.0}]}
{"substance": "Ac(RADA)4GGFHRRIKA-CONH2 (Ac-RADARADARADARADAGGFHRRIKA-NH2) [FHR = 1% solution; FHR-2P = 2% solution]", "values": [{"measurement": "effect to promote differentiation (osteocalcin)", "setting": "[3]", "value": "not so strong"}]}
